Measurements published in patent US4840941A, “Method for inhibiting infection of human T-cells” (Kabushiki Kaisha Ueno Seiyaku Oyo Kenkyujo, priority 1986, dated 1989).

Key:
[1] = tested on: HTLV-III; assay: Anti-AIDS activity, infected cell rate of MT-4 cells infected with HTLV-III at 6th day; format: cell-based; settings: for anti-AIDS virus activity: MT-4 cells, HTLV-III
Method: To MT-4 cells (30×10^4 /ml) cultured in RPMI-1640 medium containing 10% bovine serum, was inoculated HTLV-III, and the suspension was incubated at 37° C. for 1 hour to cause the adsorption of the virus. The cell:virus ratio was 500:1. The cells were then washed, and cultured with or without various doses of the test substances (same as those of Example 1) at 37° C. under 5% CO2 for 3 days, after which cell growth, viability, and percentage of infected cells were recorded. The infected cells were distinguished from the uninfected cells by indirect immuno-fluorescence method. Thus; the cultured cells were fixed with cold methanol on a slide glass, reacted with antibody to the HTLV-III-specific antigens, and further with the secondary antibody (having fluorescent label). The results are shown in FIGS. 9-29, wherein, , and show the controls without virus; , and show the infection experiments with HTLV-III. The cell growth is indicated in number of cells, the viability (%) in number of viable cells×100/number of total cells, and the infected cell rate (%) in number of fluorescent-positive cells×100/number of total cells.
In order to examine the correlation between the anti-AIDS virus activity and the molecular structure (especially, molecular weight and S-content or number of sulfate group in this case) of various test substances including those used in Examples 1-7, the anti-AIDS activities were evaluated for the various naturally occurring polysaccharides, polysaccharides having sulfate group, mucopolysaccharides, mucopolysaccharide sulfate, and mucopolysaccharide polysulfate. Further, similar experiments were carried out with various other sulfates which were synthetically obtained. The experimental procedures employed are identical to that in preceding experiments. The cultured MT-4 cells were infected with HTLV-III and the inhibitory effects of various test subsutances on the infected cell rate (number of fluorescent cell×100/ total cell, %) were determined at 6th day.

[2] = tested on: Friend leukemia virus (F-MuLV); assay: Anti-Friend leukemia virus activity, XC-plaque assay, Procedure 1; format: cell-based; settings: for Number of plagues per dish: control 168
Method: (§1) Anti-FMuLV activity of dextram sulfate (molecular weight: 7000-8000, S-content: 17-20%) was determined by a XC-plaque assay method. BALB3T3 cells were cultured in adhesive form in a 35 mm-dish at 5×10^4 cells/dish (2 ml). After removing the culture medium, a fresh medium with or without indicating concentrations of the test substance (1 ml each) and 0.2 ml of the virus preparation were charged, and the cells were cultured overnight. On the following day, the culture media were replaced with those (2 ml) containing or not containing the above substances, the incubation was continued for three additional days to progress the infection and replication of the virus. After the removal of the medium, the further progression of viral replication was stopped by UV irradiation. To this dish, the suspension of XC-cells (2 ml) was added and cultured for three days and the plaque formation produced by the virus particle induced cell-fusion, was observed.

[3] = tested on: Friend leukemia virus (F-MuLV); assay: Anti-Friend leukemia virus activity, XC-plaque assay, Procedure 2; format: cell-based; settings: for Number of plaques per dish: control 35
Method: as §1
Procedure 1 was repeated except that after adsorption of the virus in the medium without DS, the non-adsorbed viruses were removed and the culture was carried out in the medium (2 ml) containing or not containing DS.

[4] = tested on: MT-4 cells; assay: Cytotoxicity, proliferation and viability of MT-4 cells without virus; format: cell-based, human; settings: no virus
Method: MT-4 cells were cultured with or without 1-100 μg/ml of each test substance which is the same as in Example 1 and 3 and the proliferation and viability of cells were recorded.
Without the virus, MT-4 cells were cultured in the same manner as in Example 4 except the test sample was heparin, and proliferation and viability of cells were recorded.

[5] = tested on: reverse transcriptase (authentic sample) derived from Avian Myeloblastosis Virus; assay: Inhibition of reverse transcriptase activity (AMV); format: biochemical; settings: AMV enzyme; 1, 0.1 and 0.01 μg/ml
Method: Test substances were assayed for inhibition against the enzyme activity of reverse transcriptase (authentic sample) derived from Avian Myeloblastosis Virus (abbrev. AMV), a kind of retrovirus. Five microliters of […] (template RNA), 4 μl of (dT)12-18 (primer DNA), and 1 μl of water were mixed with 5 μl of 0.5M Tris-CHl (pH 8.4) including 0.1% triton X-100, 5 μl of […], 5 μl of 20 mM-DDT, 5 μl of water, and [^3 H]-TTP (tritium labeled thymidine triphosphate). To this mixture, test substances in solutions (final concentrations: 1, 0.1, and 0.01 μg/ml, 5 μl) or buffer solutions (control, 5 μl) at various doses were added. Then, 5 μl (one unit) of the authentic reverse transcriptase derived from AMV was added and the reaction mixture was incubated at 37° C. for 30 minutes. The reaction was stopped by addition of trichloroacetic acid, and after filtering the reaction mixture, the radioactivity of the polymerized (^3 H-T)n retained on the filter was measured using a liquid scintillation counter. As the test substances, sodium dextran sulfate (molecular weight: 5000), same (molecular weight: 8000), same (molecular weight: 500000), fucoidin, κ-carrageenan, λ-carrageenan, and .iota.-carrageenan were used.
The effects of the test substances on the reverse transcriptase activity of AMV were evaluated by the method described in Example 1.

[6] = Acute toxicity (LD50) in mice; format: in vivo
[7] = 10 μg/ml, 6th day, control 100%
[8] = 100 μg/ml, 6th day, control 100%
[9] = 10 μg/ml, 6th day, control 100%, 8640 min
[10] = 100 μg/ml, 6th day, control 100%, 8640 min
[11] = 1000 μg/ml, 6th day, control 100%

## O=C[C@H](O)[C@@H](O)[C@H](O)[C@H](O)COS(=O)(=O)O [Glucose-6-sulfate]
[1]; Human immunodeficiency virus 1, MT4, 144 h, 10 μg/ml, 6th day, control 100%
  Infected cell rate (% of total cells) at 10 µg/mL: 100%
[1]; Human immunodeficiency virus 1, MT4, 144 h, 100 μg/ml, 6th day, control 100%
  Infected cell rate (% of total cells) at 100 µg/mL: 100%
[1]; Human immunodeficiency virus 1, MT4, 144 h, 1000 μg/ml, 6th day, control 100%
  Infected cell rate (% of total cells) at 1000 µg/mL: 100%

## OC[C@H]1O[C@H](OC[C@H]2O[C@H](O[C@]3(CO)O[C@H](CO)[C@@H](O)[C@@H]3O)[C@H](O)[C@@H](O)[C@@H]2O)[C@H](O)[C@@H](O)[C@H]1O [raffinose]
[1]; 6th day
  anti-AIDS virus activity: neither methylcellulose showed any anti-AIDS virus activities

## .iota.-Carrageenan
[1]; [7]
  Infected cell (%): 100%
[1]; [8]
  Infected cell (%): 31%

## Agarose
[1]; [7]
  Infected cell (%): 100%
[1]; [8]
  Infected cell (%): 100%

## Alginic acid
[1]; [7]
  Infected cell (%): 100%
[1]; [8]
  Infected cell (%): 100%

## Alginic acid sulfate
[1]; [7]
  Infected cell (%): 7%
[1]; [8]
  Infected cell (%): 4%
[1]; 6th day
  anti-AIDS virus activity: particularly strong anti-AIDS virus activities

## Chitin
[1]; [7]
  Infected cell (%): 100%
[1]; [8]
  Infected cell (%): 100%

## Chitin sulfate
[1]; [7]
  Infected cell (%): 100%
[1]; [8]
  Infected cell (%): 81%

## Chitosan
[1]; [7]
  Infected cell (%): 100%
[1]; [8]
  Infected cell (%): 100%

## Chitosan sulfate
[1]; [7]
  Infected cell (%): 1%
[1]; [8]
  Infected cell (%): 1%
[1]; 6th day
  anti-AIDS virus activity: particularly strong anti-AIDS virus activities

## Chondroitin
[1]; [7]
  Infected cell (%): 100%
[1]; [8]
  Infected cell (%): 100%

## Chondroitin-4-sulfate
[1]; [7]
  Infected cell (%): 90%
[1]; [8]
  Infected cell (%): 80%

## Chondroitin-4-sulfate polysulfate
[1]; [7]
  Infected cell (%): 2%
[1]; [8]
  Infected cell (%): 1%
[1]; 6th day
  anti-AIDS virus activity: particularly strong anti-AIDS virus activities

## Chondroitin-6-sulfate
[1]; [7]
  Infected cell (%): 100%
[1]; [8]
  Infected cell (%): 100%

## Chondroitin-6-sulfate polysulfate
[1]; [7]
  Infected cell (%): 2%
[1]; [8]
  Infected cell (%): 1%
[1]; 6th day
  anti-AIDS virus activity: particularly strong anti-AIDS virus activities

## Dermatan sulfate
[1]; [7]
  Infected cell (%): 100%
[1]; [8]
  Infected cell (%): 80%

## Dextran [Dextran (molecular weight 9,000)]
[1]; [7]
  Infected cell (%): 100%
[1]; [8]
  Infected cell (%): 100%

## Dextran sulfate [Dextran sulfate (molecular weight 3,500, S-content 6)]
[1]; [9]
  Infected cell (%): 100%
[1]; [10]
  Infected cell (%): 82%
[1]; [11]
  Infected cell (%): 1%

## Dextran sulfate [Dextran sulfate (molecular weight 8,000, S-content ≈14)]
[1]; [9]
  Infected cell (%): 25%
[1]; [10]
  Infected cell (%): 0%

## Fucoidin
[1]; [7]
  Infected cell (%): 32%
[1]; [8]
  Infected cell (%): 1%

## Glucose-polysulfate
[1]; [7]
  Infected cell (%): 100%
[1]; [8]
  Infected cell (%): 100%
[1]; [11]
  Infected cell (%): 100%

## Heparitin sulfate
[1]; [7]
  Infected cell (%): 100%
[1]; [8]
  Infected cell (%): 90%

## Hyaluronic acid
[1]; [7]
  Infected cell (%): 100%
[1]; [8]
  Infected cell (%): 100%

## Hyaluronic acid sulfate
[1]; [7]
  Infected cell (%): 100%
[1]; [8]
  Infected cell (%): 70%

## Keratan sulfate
[1]; [7]
  Infected cell (%): 100%
[1]; [8]
  Infected cell (%): 60%

## N--acetylglucosamine polysulfate
[1]; [7]
  Infected cell (%): 100%
[1]; [8]
  Infected cell (%): 100%
[1]; [11]
  Infected cell (%): 100%

## Sodium dextran sulfate
[2]; 100 μg/ml of DS
  plaque formation: not detected
[2]; 1-100 μg/ml
  inhibition of the formation of plaque: ≥ 90%
[2]; DS 1 μg/ml
  Inhibition: 92%
  Number of plagues per dish: 14
[2]; DS 5 μg/ml
  Inhibition: 93%
  Number of plagues per dish: 12
[2]; DS 10 μg/ml
  Inhibition: 93%
  Number of plagues per dish: 11
[2]; DS 50 μg/ml
  Inhibition: 92%
  Number of plagues per dish: 13
[2]; DS 100 μg/ml
  Inhibition: 96%
  Number of plagues per dish: 6
[2]; DS 1000 μg/ml
  Inhibition: 100%
  Number of plagues per dish: 0
[3]; DS 0.01 μg/ml
  Inhibition: 6%
  Number of plaques per dish: 33
[3]; DS 0.1 μg/ml
  Inhibition: 45%
  Number of plaques per dish: 19
[3]; DS 1 μg/ml
  Number of plaques per dish: 14
[3]; DS 10 μg/ml
  Inhibition: 52%
  Number of plaques per dish: 17
[3]; DS 100 μg/ml
  Inhibition: 54%
  Number of plaques per dish: 16
[3]; DS 500 μg/ml
  Number of plaques per dish: 0

## Sodium dextran sulfate [Sodium dextran sulfate (molecular weight: 500,000 S-content:]
[1]; 10 μg/ml, 6th day; control 100%; S-content ≈16), 8640 min
  Infected cell (%): 20%
[1]; [8]
  Infected cell (%): 0%

## Sodium dextran sulfate [Sodium dextran sulfate (molecular weight: 5000, S-content: 1]
[1]; 10 μg/ml, 6th day; control 100%; S-content ≈13), 8640 min
  Infected cell (%): 18%
[1]; [8]
  Infected cell (%): 0%
[4]; 1 μg/ml
  Cell number: 123 × 10^4 cells/ml
[4]; 10 μg/ml
  Cell number: 127 × 10^4 cells/ml
  Viability: 92%
[4]; 100 μg/ml
  Cell number: 121 × 10^4 cells/ml
  Viability: 93%

## colominic acid
[1]; 6th day
  anti-AIDS virus activity: neither methylcellulose showed any anti-AIDS virus activities

## dextran sulfate
[1]; 6th day
  anti-AIDS virus activity: particularly strong anti-AIDS virus activities

## inulin
[1]; 6th day
  anti-AIDS virus activity: neither methylcellulose showed any anti-AIDS virus activities

## keratan polysulfate
[5]
  reverse transcriptase inhibition activity: stronger activity than the natural substances

## methylcellulose
[1]; 6th day
  anti-AIDS virus activity: neither methylcellulose showed any anti-AIDS virus activities

## pectin
[1]; 6th day
  anti-AIDS virus activity: neither methylcellulose showed any anti-AIDS virus activities

## sodium chondroitin sulfate
[6]; intraperitoneally
  acute toxicity (LD50): ≥ 4,000 mg/kg
[6]; orally
  acute toxicity (LD50): ≥ 7,500 mg/kg

## κ-carrageenan [Carrageenan 20%enan 80% + λ]
[1]; [7]
  Infected cell (%): 95%
[1]; [8]
  Infected cell (%): 1%

## λ-Carrageenan
[1]; [7]
  Infected cell (%): 3%
[1]; [8]
  Infected cell (%): 1%
[1]; 6th day
  anti-AIDS virus activity: particularly strong anti-AIDS virus activities
